How the values were obtained:
[1] = tested on: C57BL/6JRj mice; test: 40 Hz ASSR, MK-801 induced deficit; type: in vivo; conditions: mouse
Description: We have also employed here event-related potentials (ERPs) and auditory-evoked oscillations, which serve as critical translational biomarkers, to assess the impact of our investigational drug on sensory processing and cognitive functions, providing valuable data on its potential efficacy in treating disorders like schizophrenia. Detailed description of the methodology, setup specifications and recording procedure and analysis of the 40 Hz auditory steady-state response (ASSR) protocol can be found in Schuelert et al.[27] […] Reduced entrainment of gamma oscillation reflects abnormalities in basic sensory registration and processing but is also associated with impaired higher cognitive functions.[32] ASSR can also be reliably impaired preclinically by different NMDA receptor antagonists.[33],[34] […] Abnormalities associated with the filtering or “gating” of sensory information are among the most consistent findings in schizophrenia research.[35] N100 gating deficits also correlated with negative-cognitive deficits dimensions of schizophrenia[36] and can be modeled preclinically with NMDA receptor antagonists.[37]19d reversed N1 sensory gating deficit induced by MK-801 with the highest dose of 10 mg/kg (Figure 12B). Mean plasma exposures in satellite mice after subcutaneous administration of 19d at 0.8, 4, and 10 mg/kg were 187, 1207, and 2490 nM, respectively.
The mGlu2/3 selective agonist LY379268 was used here as a positive control, applied also s.c. at 3 mg/kg dose. […] Data are shown as mean ± SEM (n = 13–19 for each treatment group). *P < 0.05, **P < 0.01, ***P < 0.005 compared with vehicle; #P < 0.05, ##P < 0.01 compared with MK-801. […]
Mice were placed in a plexiglass cage in an attenuated sound box and allowed to adapt to their environment for 20 min before subcutaneous administration of VU6024578 0.8, 4, and 10 mg/kg or vehicle (20% HP-β-CD in water). […] An infrared sensor on the Neurologger recorded the infrared trigger signals and trigger signals were saved in an individual trigger channel. […]

[2] = target: T1, Y1 (Homo sapiens, UniProt P25929); test: Eurofins radioligand binding panel; conditions: agonist radioligand
T1 construct: Eurofins
Description: (§1) Table S1. Eurofins Lead Profiling Screen Data
(§2) This is a radioligand binding panel of 80 targets including GPCRs, ion channels, transporters and nuclear hormones. Biochemical assay results are presented as the percent inhibition of specific […]
(§3) Results showing an inhibition or stimulation higher than 50% are considered to represent significant effect and are highlighted

[3] = target: T2, 5-HT5a (Homo sapiens, UniProt P47898); test: Eurofins radioligand binding panel; conditions: agonist radioligand
T2 construct: Eurofins
T2 sequence (P47898 whole entry): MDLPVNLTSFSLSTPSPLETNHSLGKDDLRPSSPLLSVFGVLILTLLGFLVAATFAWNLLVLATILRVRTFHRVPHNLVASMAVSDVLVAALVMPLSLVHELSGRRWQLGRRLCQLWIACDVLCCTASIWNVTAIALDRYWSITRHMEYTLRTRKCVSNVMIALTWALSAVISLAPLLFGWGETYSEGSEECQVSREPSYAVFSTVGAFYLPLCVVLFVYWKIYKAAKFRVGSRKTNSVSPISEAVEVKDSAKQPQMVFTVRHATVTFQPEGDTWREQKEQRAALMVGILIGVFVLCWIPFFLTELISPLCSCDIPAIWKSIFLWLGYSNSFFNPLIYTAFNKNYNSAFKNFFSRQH
Description: as §1, §2, §3

[4] = target: T3, NK2 (Homo sapiens, UniProt P21452); test: Eurofins radioligand binding panel; conditions: agonist radioligand
T3 construct: Eurofins
Description: as §1, §2, §3

[5] = target: T4, D3 (Homo sapiens, UniProt P35462); test: Eurofins radioligand binding panel; conditions: antagonist radioligand
T4 construct: Eurofins (panel run as a service)
Description: as §1, §2, §3

[6] = target: T5, delta (DOP) (Homo sapiens, UniProt P41143); test: Eurofins radioligand binding panel; conditions: agonist radioligand
T5 construct: Eurofins
T5 sequence (P41143 whole entry): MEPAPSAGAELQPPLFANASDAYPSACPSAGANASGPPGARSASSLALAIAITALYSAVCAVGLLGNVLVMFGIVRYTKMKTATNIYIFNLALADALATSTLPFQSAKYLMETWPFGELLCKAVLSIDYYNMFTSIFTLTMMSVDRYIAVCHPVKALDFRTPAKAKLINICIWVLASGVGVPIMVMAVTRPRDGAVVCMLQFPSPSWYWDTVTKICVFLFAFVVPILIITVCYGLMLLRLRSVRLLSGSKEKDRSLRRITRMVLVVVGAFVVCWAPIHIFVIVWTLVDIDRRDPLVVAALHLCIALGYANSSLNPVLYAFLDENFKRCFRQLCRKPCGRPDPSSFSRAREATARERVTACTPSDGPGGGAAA
Description: as §1, §2, §3

[7] = target: T6, M3 (Homo sapiens, UniProt P20309); test: Eurofins radioligand binding panel; conditions: antagonist radioligand
T6 construct: Eurofins
T6 sequence (P20309 whole entry): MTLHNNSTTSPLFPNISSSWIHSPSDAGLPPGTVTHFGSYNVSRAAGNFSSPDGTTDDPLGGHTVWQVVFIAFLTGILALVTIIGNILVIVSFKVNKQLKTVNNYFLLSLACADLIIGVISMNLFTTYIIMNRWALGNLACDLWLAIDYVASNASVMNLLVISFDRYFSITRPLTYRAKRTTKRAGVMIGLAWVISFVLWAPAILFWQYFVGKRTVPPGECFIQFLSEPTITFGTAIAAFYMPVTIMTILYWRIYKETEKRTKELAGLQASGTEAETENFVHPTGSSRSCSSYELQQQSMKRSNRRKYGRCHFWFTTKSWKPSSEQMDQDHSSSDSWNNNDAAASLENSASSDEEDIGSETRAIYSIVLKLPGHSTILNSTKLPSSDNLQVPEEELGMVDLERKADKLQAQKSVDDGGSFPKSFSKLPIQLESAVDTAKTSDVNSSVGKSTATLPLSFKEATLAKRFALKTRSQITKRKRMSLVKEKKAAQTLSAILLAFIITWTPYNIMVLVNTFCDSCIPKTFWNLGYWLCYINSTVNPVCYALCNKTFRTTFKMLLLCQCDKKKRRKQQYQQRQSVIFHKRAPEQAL
Description: as §1, §2, §3

[8] = target: T7, D5 (Homo sapiens, UniProt P21918); test: Eurofins radioligand binding panel; conditions: antagonist radioligand
T7 construct: Eurofins (panel run as a service)
Description: as §1, §2, §3

[9] = target: T8, 5-HT3 (Homo sapiens, UniProt P46098); test: Eurofins radioligand binding panel; conditions: antagonist radioligand
T8 construct: Eurofins
Description: as §1, §2, §3

[10] = target: T9, D1 (Homo sapiens, UniProt P21728); test: Eurofins radioligand binding panel; conditions: antagonist radioligand
T9 construct: Eurofins (panel run as a service)
T9 sequence (P21728 whole entry): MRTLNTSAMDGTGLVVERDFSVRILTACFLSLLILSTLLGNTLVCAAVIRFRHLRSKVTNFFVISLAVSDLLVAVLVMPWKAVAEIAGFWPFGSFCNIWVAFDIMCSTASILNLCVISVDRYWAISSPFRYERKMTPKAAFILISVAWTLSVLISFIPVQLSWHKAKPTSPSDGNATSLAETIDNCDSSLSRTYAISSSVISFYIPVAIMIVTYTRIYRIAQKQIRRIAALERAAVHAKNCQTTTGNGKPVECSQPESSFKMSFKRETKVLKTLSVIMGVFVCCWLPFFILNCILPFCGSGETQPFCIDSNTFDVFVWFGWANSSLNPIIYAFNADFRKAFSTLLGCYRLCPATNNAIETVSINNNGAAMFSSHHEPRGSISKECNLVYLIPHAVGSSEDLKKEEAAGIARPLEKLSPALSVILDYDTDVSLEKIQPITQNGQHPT
Description: as §1, §2, §3

[11] = target: T10, M1 (Homo sapiens, UniProt P11229); test: Eurofins radioligand binding panel; conditions: antagonist radioligand
T10 construct: Eurofins
T10 sequence (P11229 whole entry): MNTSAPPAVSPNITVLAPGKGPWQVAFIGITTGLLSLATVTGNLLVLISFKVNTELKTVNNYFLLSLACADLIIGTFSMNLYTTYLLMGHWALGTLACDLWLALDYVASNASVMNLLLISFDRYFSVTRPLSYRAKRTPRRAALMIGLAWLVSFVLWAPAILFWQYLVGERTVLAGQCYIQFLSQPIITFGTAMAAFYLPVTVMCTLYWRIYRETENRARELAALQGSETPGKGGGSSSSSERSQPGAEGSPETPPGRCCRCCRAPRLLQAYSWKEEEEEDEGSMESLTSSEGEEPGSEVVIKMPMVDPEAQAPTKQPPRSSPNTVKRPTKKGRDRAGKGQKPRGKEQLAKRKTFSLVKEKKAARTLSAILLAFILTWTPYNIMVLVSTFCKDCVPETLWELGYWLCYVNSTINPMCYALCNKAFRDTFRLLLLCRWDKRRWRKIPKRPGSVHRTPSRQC
Description: as §1, §2, §3

[12] = target: T11, ETA (Homo sapiens, UniProt P25101); test: Eurofins radioligand binding panel; conditions: agonist radioligand
T11 construct: Eurofins (panel run as a service)
Description: as §1, §2, §3

[13] = target: T12, 5-HT transporter (Homo sapiens, UniProt P31645); test: Eurofins radioligand binding panel; conditions: antagonist radioligand
T12 construct: Eurofins
T12 sequence (P31645 whole entry): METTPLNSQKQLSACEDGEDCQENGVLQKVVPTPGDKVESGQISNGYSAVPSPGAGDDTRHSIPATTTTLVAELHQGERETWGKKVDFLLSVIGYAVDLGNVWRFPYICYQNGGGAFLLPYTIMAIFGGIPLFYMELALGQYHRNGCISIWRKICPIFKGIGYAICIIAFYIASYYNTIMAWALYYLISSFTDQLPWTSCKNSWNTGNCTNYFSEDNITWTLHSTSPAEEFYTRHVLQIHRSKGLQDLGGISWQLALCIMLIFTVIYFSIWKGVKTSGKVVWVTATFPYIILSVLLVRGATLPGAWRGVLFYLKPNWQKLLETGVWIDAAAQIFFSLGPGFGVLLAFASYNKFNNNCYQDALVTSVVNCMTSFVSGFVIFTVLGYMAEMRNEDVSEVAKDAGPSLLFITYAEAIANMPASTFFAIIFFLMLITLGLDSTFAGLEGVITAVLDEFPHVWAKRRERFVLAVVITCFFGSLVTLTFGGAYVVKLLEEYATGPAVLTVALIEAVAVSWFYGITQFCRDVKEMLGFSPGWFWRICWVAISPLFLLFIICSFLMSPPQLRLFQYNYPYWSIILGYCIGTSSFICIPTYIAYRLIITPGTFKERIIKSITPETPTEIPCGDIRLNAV
Description: as §1, §2, §3

[14] = target: T13, H2 (Homo sapiens, UniProt P25021); test: Eurofins radioligand binding panel; conditions: antagonist radioligand
T13 construct: Eurofins (panel run as a service)
T13 sequence (P25021 whole entry): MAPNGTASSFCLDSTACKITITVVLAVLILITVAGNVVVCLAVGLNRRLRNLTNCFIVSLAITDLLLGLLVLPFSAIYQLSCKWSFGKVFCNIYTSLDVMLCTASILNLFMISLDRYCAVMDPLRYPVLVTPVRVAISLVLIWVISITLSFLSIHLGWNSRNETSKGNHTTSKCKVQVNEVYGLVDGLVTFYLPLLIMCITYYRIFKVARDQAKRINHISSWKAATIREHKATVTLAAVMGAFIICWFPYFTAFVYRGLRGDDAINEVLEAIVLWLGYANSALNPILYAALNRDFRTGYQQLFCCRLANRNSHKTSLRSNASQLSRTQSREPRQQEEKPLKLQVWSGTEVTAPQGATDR
Description: as §1, §2, §3

[15] = target: T14, CXCR2 (IL-8B) (Homo sapiens, UniProt P25025); test: Eurofins radioligand binding panel; conditions: agonist radioligand
T14 construct: Eurofins (panel run as a service)
T14 sequence (P25025 whole entry): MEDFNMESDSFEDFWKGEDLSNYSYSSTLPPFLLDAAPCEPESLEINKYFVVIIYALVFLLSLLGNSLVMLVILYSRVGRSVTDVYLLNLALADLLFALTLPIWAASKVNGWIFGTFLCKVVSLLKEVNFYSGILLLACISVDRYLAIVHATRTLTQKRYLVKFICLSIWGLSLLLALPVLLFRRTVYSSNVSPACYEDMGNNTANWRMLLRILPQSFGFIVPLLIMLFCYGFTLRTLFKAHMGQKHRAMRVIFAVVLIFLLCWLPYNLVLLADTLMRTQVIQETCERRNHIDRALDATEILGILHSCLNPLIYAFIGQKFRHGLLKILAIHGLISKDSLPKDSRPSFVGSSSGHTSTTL
Description: as §1, §2, §3

[16] = target: T15, M2 (Homo sapiens, UniProt P08172); test: Eurofins radioligand binding panel; conditions: antagonist radioligand
T15 construct: Eurofins
Description: as §1, §2, §3

[17] = target: T16, dopamine transporter (Homo sapiens, UniProt Q01959); test: Eurofins radioligand binding panel; conditions: antagonist radioligand
T16 construct: Eurofins
T16 sequence (Q01959 whole entry): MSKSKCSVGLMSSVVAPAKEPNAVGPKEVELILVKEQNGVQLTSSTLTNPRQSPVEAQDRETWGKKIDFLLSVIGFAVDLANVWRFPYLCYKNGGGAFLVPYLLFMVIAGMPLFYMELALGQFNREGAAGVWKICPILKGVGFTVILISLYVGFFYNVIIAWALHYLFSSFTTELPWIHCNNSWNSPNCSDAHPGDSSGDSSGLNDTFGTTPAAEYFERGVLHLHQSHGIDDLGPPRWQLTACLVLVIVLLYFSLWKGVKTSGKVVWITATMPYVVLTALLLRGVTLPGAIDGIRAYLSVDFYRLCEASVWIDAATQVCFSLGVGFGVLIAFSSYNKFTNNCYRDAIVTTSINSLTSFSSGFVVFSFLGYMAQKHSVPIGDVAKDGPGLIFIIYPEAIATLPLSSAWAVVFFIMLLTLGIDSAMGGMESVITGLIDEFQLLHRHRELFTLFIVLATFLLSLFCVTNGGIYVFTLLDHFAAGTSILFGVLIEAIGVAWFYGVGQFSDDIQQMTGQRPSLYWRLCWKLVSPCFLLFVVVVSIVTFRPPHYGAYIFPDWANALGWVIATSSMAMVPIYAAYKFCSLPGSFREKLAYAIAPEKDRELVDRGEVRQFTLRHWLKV
Description: as §1, §2, §3

[18] = target: T17, MC4 (Homo sapiens, UniProt P32245); test: Eurofins radioligand binding panel; conditions: agonist radioligand
T17 construct: Eurofins
Description: as §1, §2, §3

[19] = target: T18, M4 (Homo sapiens, UniProt P08173); test: Eurofins radioligand binding panel; conditions: antagonist radioligand
T18 construct: Eurofins
T18 sequence (P08173 whole entry): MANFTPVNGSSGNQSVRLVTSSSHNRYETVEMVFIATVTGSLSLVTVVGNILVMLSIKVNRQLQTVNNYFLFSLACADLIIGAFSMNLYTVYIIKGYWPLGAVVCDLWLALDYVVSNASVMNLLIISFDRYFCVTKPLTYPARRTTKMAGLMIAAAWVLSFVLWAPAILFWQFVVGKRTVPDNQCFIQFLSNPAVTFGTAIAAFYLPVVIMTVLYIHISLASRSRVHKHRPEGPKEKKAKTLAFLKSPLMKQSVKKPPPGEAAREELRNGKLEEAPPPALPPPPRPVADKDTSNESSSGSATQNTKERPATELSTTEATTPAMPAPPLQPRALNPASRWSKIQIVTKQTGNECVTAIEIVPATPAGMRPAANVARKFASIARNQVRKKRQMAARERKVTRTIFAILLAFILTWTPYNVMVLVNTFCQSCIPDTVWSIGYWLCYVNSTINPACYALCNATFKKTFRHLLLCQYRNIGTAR
Description: as §1, §2, §3

[20] = target: T19, MT1 (ML1A) (Homo sapiens, UniProt P48039); test: Eurofins radioligand binding panel; conditions: agonist radioligand
T19 construct: Eurofins
Description: as §1, §2, §3

Cn1nc(-c2ccnn2C)cc1CNC(=O)c1cc(-c2ccco2)ccc1Cl [Compound 19d, 2-Chloro-N-((1,2′-dimethyl-1H,2’H-[3,3′-bipyrazol]-5-yl)methyl)-5-(furan-2-yl)benzamide] was tested, and the “reversal of MK-801 deficit in 40 Hz ASSR intertrial coherence (PFC)” value (from here on “reversal of MK-801 deficit”) ([1]; 0.8 mg/kg s.c.) was “no significant effect”, the “reversal of MK-801 deficit” value ([1]; 4 mg/kg s.c.) was “complete reversal” and the “reversal of MK-801 deficit” value ([1]; 10 mg/kg s.c.) was “complete reversal”. It also gave an inhibition at 10 µM [2] of -7%, an inhibition at 10 µM [3] of -2% and an inhibition at 10 µM [4] of 11%. For the same compound, the inhibition at 10 µM [5] was -6%, the inhibition at 10 µM [6] was 8% and the inhibition at 10 µM [7] was 2%. For the same compound, the inhibition at 10 µM [8] was -1%, the inhibition at 10 µM [9] was 2% and the inhibition at 10 µM [10] was 3%. For the same compound, the inhibition at 10 µM [11] was 14%, the inhibition at 10 µM [12] was -6% and the inhibition at 10 µM [13] was 47%. It also gave an inhibition at 10 µM [14] of -31%, an inhibition at 10 µM [15] of 3% and an inhibition at 10 µM [16] of 18%. For the same compound, the inhibition at 10 µM [17] was 37%, the inhibition at 10 µM [18] was 14% and the inhibition at 10 µM [19] was 11%. It also gave an inhibition at 10 µM [20] of 17%.

From article PMC11684029, “Discovery of VU6024578/BI02982816: An mGlu1 Positive Allosteric Modulator with Efficacy in Preclinical Antipsychotic and Cognition Models” (Journal of Medicinal Chemistry, 2024)
